Source: patent US20260356856A1, “KRAS G12S AND G12C INHIBITORS” (MIRATI THERAPEUTICS, INC., priority 2023, published 2026)

Legend:
KRas G12C = biological target: T1, KRas G12C (Homo sapiens, UniProt P01116, G12C); experiment: KRas binding assay, TR-FRET displacement of Cy5 labelled tracer; conditions: 60-minute incubation at room temperature, 1% DMSO, pH 7.5
T1 construct: Biotinylated KRas (corresponding to amino acids 1-169, produced at Accelegan Inc.); biotin (biotinylated); purchased Accelegan Inc
How it was run: (§1)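 Assay buffer was HEPES (50 mM, pH 7.5) with MgCl2 (5 mM), DTT (1 mM) and Tween-20 (0.005%). Biotinylated KRas spanning residues 1-169 met tracer, terbium streptavidin and compound (1% DMSO, final) for 60 minutes at ambient temperature before reading. POC values were fitted for IC50.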

KRas G12S = biological target: T2, KRas G12S (Homo sapiens, UniProt P01116, G12S); experiment: as above; conditions: 60-minute incubation at room temperature, 1% DMSO, pH 7.5
T2 construct: Biotinylated KRas (corresponding to amino acids 1-169, produced at Accelegan Inc.); biotin (biotinylated); purchased Accelegan Inc
How it was run: as §1

KRas WT = biological target: T3, KRas WT (Homo sapiens, UniProt P01116); experiment: as above; conditions: 60-minute incubation at room temperature, 1% DMSO, pH 7.5
T3 construct: Biotinylated KRas (corresponding to amino acids 1-169, produced at Accelegan Inc.); biotin (biotinylated); purchased Accelegan Inc
How it was run: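 Room-temperature incubation (60 min) of compound with biotinylated KRas 1-169, tracer and Tb-streptavidin preceded the TR-FRET read. Final DMSO was 1%; buffer pH 7.5. Percent-of-control values went into a 4-parameter equation to give IC50.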

[1] = biological target: T4, KRas-mediated phosphorylation of ERK in MKN1 cells (Homo sapiens, UniProt P01116); experiment: Inhibition of KRas-mediated phosphorylation of ERK (HTRF), MKN1 cells; type: cell-based; conditions: MKN1 cells (KRas WT); HTRF pERK; 3 h incubation
T4 construct: pERK HTRF read-out
Experimental: Inhibition of KRas Phosphorylation of ERK (HTRF) by Exemplary Compounds of Formula (Ia) or (Ib)
Cisbio HTRF Advanced pERK Assay Catalog #64AERPEH • Cells: MKN1, PSN1 • Procedure: • 1. Day 1: Seed 6,000 cells/well −25 μl/well in 384-well white solid bottom plate; RPM1_10% FBS. Incubate overnight at 37 °C/5% CO2. • 2.

[2] = biological target: T5, KRas-mediated phosphorylation of ERK in A549 cells (Homo sapiens, UniProt P01116, G12S); experiment: Inhibition of KRas-mediated phosphorylation of ERK (HTRF), A549 cells; type: cell-based; conditions: HTRF pERK, 3 h incubation
T5 construct: pERK HTRF read-out
T5 sequence (P01116 1-188 isoform P01116-2 G12S): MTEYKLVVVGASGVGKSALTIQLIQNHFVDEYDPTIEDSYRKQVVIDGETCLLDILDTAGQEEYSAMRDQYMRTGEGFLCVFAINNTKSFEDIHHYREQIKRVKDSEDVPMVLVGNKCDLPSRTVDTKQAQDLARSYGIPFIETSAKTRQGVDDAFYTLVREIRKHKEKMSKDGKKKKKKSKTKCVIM

T4 sequence (P01116 1-188 isoform P01116-2): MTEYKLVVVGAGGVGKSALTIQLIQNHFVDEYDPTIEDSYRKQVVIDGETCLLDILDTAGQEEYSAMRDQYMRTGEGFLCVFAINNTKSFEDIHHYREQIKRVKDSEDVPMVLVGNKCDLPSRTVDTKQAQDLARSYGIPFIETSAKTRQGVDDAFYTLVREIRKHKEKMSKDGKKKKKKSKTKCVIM
T1 sequence (P01116 1-169 isoform P01116-2 G12C): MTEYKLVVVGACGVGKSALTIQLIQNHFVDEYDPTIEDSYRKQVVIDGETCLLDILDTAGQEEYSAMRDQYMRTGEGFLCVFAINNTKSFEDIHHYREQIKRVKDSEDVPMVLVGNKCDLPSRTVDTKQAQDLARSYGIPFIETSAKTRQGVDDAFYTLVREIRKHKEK
T2 sequence (P01116 1-169 isoform P01116-2 G12S): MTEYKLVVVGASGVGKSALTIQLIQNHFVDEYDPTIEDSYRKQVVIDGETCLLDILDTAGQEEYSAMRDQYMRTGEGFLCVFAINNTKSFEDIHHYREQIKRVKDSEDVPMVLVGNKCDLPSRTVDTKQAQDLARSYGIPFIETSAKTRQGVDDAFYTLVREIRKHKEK
T3 sequence (P01116 1-169 isoform P01116-2): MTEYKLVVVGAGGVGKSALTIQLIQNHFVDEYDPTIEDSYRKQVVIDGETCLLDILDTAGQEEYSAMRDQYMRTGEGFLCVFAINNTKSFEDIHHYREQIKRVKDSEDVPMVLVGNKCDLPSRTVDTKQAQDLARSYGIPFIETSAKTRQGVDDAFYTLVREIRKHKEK

| Compound | IC50 (KRas G12C) | IC50 (KRas G12S) | IC50 (KRas WT) | IC50 [1] | IC50 [2] |
| --- | --- | --- | --- | --- | --- |
| CCc1c(F)ccc2cc(O)cc(N3CCc4c(nc(OC[C@@]56CCCN5C[C@H](F)C6)nc4N(C)CCC(=O)n4ccc(C)n4)C3)c12 [Example 196, 3-((7-(8-ethyl-7-fluoro-3-hydroxynaphthalen-1-yl)-2-(((2R,7aS)-2-fluorotetrahydro-1H-pyrrolizin-7a(5H)-yl)methoxy)-5,6,7,8-tetrahydropyrido[3,4-d]pyrimidin-4-yl)(methyl)amino)-1-(3-methyl-1H-pyrazol-1-yl) propan-1-one] | 40 nM | 45 nM | 55 nM | 2200 nM | > 10000 nM |
| CCc1c(F)ccc2cc(O)cc(-c3ncc4c(N5CCCC6CC6(C(=O)n6ccc(C)n6)CC5)nc(OC[C@@]56CCCN5C[C@H](F)C6)nc4c3F)c12 (stereo partly drawn) [Example 117, (4-(7-(8-ethyl-7-fluoro-3-hydroxynaphthalen-1-yl)-8-fluoro-2-(((2R,7aS)-2-fluorotetrahydro-1H-pyrrolizin-7a(5H)-yl)methoxy)pyrido[4,3-d]pyrimidin-4-yl)-4-azabicyclo[6.1.0]nonan-1-yl)(3-methyl-1H-pyrazol-1-yl)methanone] | 129 nM | 158 nM | 68 nM | 333 nM | 4050 nM |
| CCc1c(F)ccc2cc(O)cc(-c3ncc4c(NC[C@@H]5[C@H](C(=O)n6ccc(C)n6)C5(C)C)nc(OC[C@@]56CCCN5C[C@H](F)C6)nc4c3F)c12 [Example 109, ((1S,3R)-3-(((7-(8-ethyl-7-fluoro-3-hydroxynaphthalen-1-yl)-8-fluoro-2-(((2R,7aS)-2-fluorotetrahydro-1H-pyrrolizin-7a(5H)-yl)methoxy)pyrido[4,3-d]pyrimidin-4-yl)amino)methyl)-2,2-dimethylcyclopropyl)(3-methyl-1H-pyrazol-1-yl)methanone] | 134 nM | 99 nM | 73 nM | 316 nM | 1920 nM |
| CCc1c(F)ccc2cc(O)cc(-c3ncc4c(N5C[C@@H]6[C@H](C5)[C@H]6C(=O)n5ccc(C)n5)nc(OC[C@@]56CCCN5C[C@H](F)C6)nc4c3F)c12 [Example 118, ((1R,5S,6S)-3-(7-(8-ethyl-7-fluoro-3-hydroxynaphthalen-1-yl)-8-fluoro-2-(((2R,7aS)-2-fluorotetrahydro-1H-pyrrolizin-7a(5H)-yl)methoxy)pyrido[4,3-d]pyrimidin-4-yl)-3-azabicyclo[3.1.0]hexan-6-yl)(3-methyl-1H-pyrazol-1-yl)methanone] | 591 nM | 437 nM | 873 nM | 5750 nM | 7840 nM |
| CCc1c(F)ccc2cc(O)cc(N3CCc4c(nc(OC[C@@]56CCCN5C[C@H](F)C6)nc4N4CCC(C(=O)n5ccc(C)n5)C4)C3)c12 (stereo partly drawn) [Example 197, (1-(7-(8-ethyl-7-fluoro-3-hydroxynaphthalen-1-yl)-2-(((2R,7aS)-2-fluorotetrahydro-1H-pyrrolizin-7a(5H)-yl)methoxy)-5,6,7,8-tetrahydropyrido[3,4-d]pyrimidin-4-yl)pyrrolidin-3-yl)(3-methyl-1H-pyrazol-1-yl)methanone] | 21 nM | 28 nM | 176 nM | 4950 nM | 164 nM |
| CCc1c(F)ccc2cc(O)cc(N3CCc4c(nc(OC[C@@]56CCCN5C[C@H](F)C6)nc4N(C)CCCC(=O)n4ccc(C)n4)C3)c12 [Example 194, 4-((7-(8-ethyl-7-fluoro-3-hydroxynaphthalen-1-yl)-2-(((2R,7aS)-2-fluorotetrahydro-1H-pyrrolizin-7a(5H)-yl)methoxy)-5,6,7,8-tetrahydropyrido[3,4-d]pyrimidin-4-yl)(methyl)amino)-1-(3-methyl-1H-pyrazol-1-yl) butan-1-one] | 4 nM | 7 nM | 209 nM | 766 nM | 130 nM |
| CCc1c(F)ccc2cc(O)cc(-c3ncc4c(N(C)CCCS(=O)(=O)n5ccnc5)nc(OC[C@@]56CCCN5C[C@H](F)C6)nc4c3F)c12 [Example 163, 4-(4-((3-((1H-imidazol-1-yl)sulfonyl)propyl)(methyl)amino)-8-fluoro-2-(((2R,7aS)-2-fluorotetrahydro-1H-pyrrolizin-7a(5H)-yl)methoxy)pyrido[4,3-d]pyrimidin-7-yl)-5-ethyl-6-fluoronaphthalen-2-ol] | 131 nM | 129 nM | 98 nM | 1250 nM | 7590 nM |
| CCc1c(F)ccc2cc(O)cc(-c3ncc4c(N(C)CCCC(=O)N(C)C(C)=O)nc(OC[C@@]56CCCN5C[C@@]5(CC5(F)F)C6)nc4c3F)c12 [Example 293, N-acetyl-4-((2-(((1S,7a'S)-2,2-difluorodihydro-1′H,3′H-spiro[cyclopropane-1,2′-pyrrolizin]-7a′ (5′H)-yl)methoxy)-7-(8-ethyl-7-fluoro-3-hydroxynaphthalen-1-yl)-8-fluoropyrido[4,3-d]pyrimidin-4-yl)(methyl)amino)-N-methylbutanamide] | 72 nM | 21 nM | 219 nM | 699 nM | 67 nM |
| CCc1c(F)ccc2cc(O)cc(-c3ncc4c(N5CCC6CC6(C(=O)n6ccc(C)n6)CC5)nc(OC[C@@]56CCCN5C[C@H](F)C6)nc4c3F)c12 (stereo partly drawn) [Example 91, (4-(7-(8-ethyl-7-fluoro-3-hydroxynaphthalen-1-yl)-8-fluoro-2-(((2R,7aS)-2-fluorotetrahydro-1H-pyrrolizin-7a(5H)-yl)methoxy)pyrido[4,3-d]pyrimidin-4-yl)-4-azabicyclo[5.1.0]octan-1-yl)(3-methyl-1H-pyrazol-1-yl)methanone] | 141 nM | 62 nM | 317 nM | 853 nM | 210 nM |
| CCc1c(F)ccc2cc(O)cc(-c3ncc4c(NCCCC(=O)n5ccc(C)n5)nc(OC[C@@]56CCCN5C[C@H](F)C6)nc4c3F)c12 [Example 111, 4-((7-(8-ethyl-7-fluoro-3-hydroxynaphthalen-1-yl)-8-fluoro-2-(((2R,7aS)-2-fluorotetrahydro-1H-pyrrolizin-7a(5H)-yl)methoxy)pyrido[4,3-d]pyrimidin-4-yl)amino)-1-(3-methyl-1H-pyrazol-1-yl) butan-1-one] | < 2 nM | 3 nM | 13 nM | 219 nM | 16 nM |
| CCc1c(F)ccc2cc(O)cc(-c3ncc4c(N5CC6C(CC(=O)n7ccc(C)n7)C6C5)nc(OC[C@@]56CCCN5C[C@H](F)C6)nc4c3F)c12 (stereo partly drawn) [Example 120, 2-(3-(7-(8-ethyl-7-fluoro-3-hydroxynaphthalen-1-yl)-8-fluoro-2-(((2R,7aS)-2-fluorotetrahydro-1H-pyrrolizin-7a(5H)-yl)methoxy)pyrido[4,3-d]pyrimidin-4-yl)-3-azabicyclo[3.1.0]hexan-6-yl)-1-(3-methyl-1H-pyrazol-1-yl) ethan-1-one] | 142 nM | 186 nM | 1210 nM | 5380 nM | 229 nM |
| CCc1c(F)ccc2cc(O)cc(-c3ncc4c(N5CCC(CC(=O)n6ccc(C)n6)C5)nc(OC[C@@]56CCCN5C[C@H](F)C6)nc4c3F)c12 (stereo partly drawn) [Example 113, 2-(1-(7-(8-ethyl-7-fluoro-3-hydroxynaphthalen-1-yl)-8-fluoro-2-(((2R,7aS)-2-fluorotetrahydro-1H-pyrrolizin-7a(5H)-yl)methoxy)pyrido[4,3-d]pyrimidin-4-yl)pyrrolidin-3-yl)-1-(3-methyl-1H-pyrazol-1-yl) ethan-1-one] | 137 nM | 31 nM | 78 nM | 3150 nM | 110 nM |
| CCc1c(F)ccc2cc(O)cc(N3CCc4c(nc(OC[C@@]56CCCN5C[C@H](F)C6)nc4N4CCCCC(C(=O)n5ccc(C)n5)C4)C3)c12 (stereo partly drawn) [Example 147, (1-(7-(8-ethyl-7-fluoro-3-hydroxynaphthalen-1-yl)-2-(((2R,7aS)-2-fluorotetrahydro-1H-pyrrolizin-7a(5H)-yl)methoxy)-5,6,7,8-tetrahydropyrido[3,4-d]pyrimidin-4-yl)azepan-3-yl)(3-methyl-1H-pyrazol-1-yl)methanone] | 16 nM | 37 nM | 45 nM | 45 nM | 1210 nM |
| CCc1c(F)ccc2cc(O)cc(-c3ncc4c(N5CC(C(=O)n6ccc(C)n6)C(C)(C)C5)nc(OC[C@@]56CCCN5C[C@H](F)C6)nc4c3F)c12 (stereo partly drawn) [Example 101, (1-(7-(8-ethyl-7-fluoro-3-hydroxynaphthalen-1-yl)-8-fluoro-2-(((2R,7aS)-2-fluorotetrahydro-1H-pyrrolizin-7a(5H)-yl)methoxy)pyrido[4,3-d]pyrimidin-4-yl)-4,4-dimethylpyrrolidin-3-yl)(3-methyl-1H-pyrazol-1-yl)methanone] | 784 nM | 934 nM | 716 nM | 5550 nM | > 10000 nM |
